According to patent US20220354894A1, “Cell Composition Comprising Radiolabled Mesenchymal Stem Cells, Use Thereof and Method for Preparing Radiolabeled Mesenchymal Stem Cells” (Boehringer Ingelheim Veterinary Medicine Belgium, priority 2019, published 2022):

Test: Whole body scintigraphy biodistribution after IV, IM, SC injection in dogs (Example 4)
Type: in vivo
Conditions: dog
Experimental: Three different studies were performed. In a first study, the biodistribution of intravenously administrated equine peripheral blood-derived MSCs (ePB-MSCs) was evaluated in four dogs. In the second study, the biodistribution of intramuscularly and subcutaneously administrated ePB-MSCs was evaluated in four dogs. Finally, in a third study, the biodistribution of a higher dose of ePB-MSCs following intravenous administration was evaluated in three dogs.
Four healthy adult research dogs were included in the two first studies; three dogs from the second study were re-used for the third study. All dogs were purpose bred adult beagles (16-23 months). Two males and two females were included in the first two studies and one male and two female dogs were included in the third study. The dogs were housed in groups of 2, in a pen of 4 by 4 by 2 m (L×W×H) so permanent visual, olfactorial, tactile and auditive contact between dogs was possible. Toys were provided for the dogs to play with in their pen. Cleaning of the dog pens was performed daily. The floor was covered with wood shavings to improve lying comfort for the dogs. The animals were let out in dog runs to play and run for minimal 1 hour a day. After the study this minimal time was increased depending on the need of the dogs.
In the first study, each dog received two intravenous injections; first the dogs were injected with the control product: freshly eluted ^99mTc dissolved in DMEM and at least 7 days later they received a second injection with ^99mTc-labeled ePB-MSCs. For the second study, 4 injections were administered to each dog. The dogs first received an IM injection with the control product, next a SC with the control product, then an IM injection with the ^99mTc-labeled ePB-MSCs and finally a SC administration of the ^99mTc-labeled ePB-MSCs. At least 7 days separated each injection. In the third study, the three dogs received a single IV injection with ^99mTc-labeled ePB-MSCs.
The dogs were put under general anesthesia and positioned in sternal recumbency on the gamma camera before each injection. To obtain general anesthesia, the dogs were first sedated with dexmedetomidine (12-25 μg/kg IM), next induction was obtained with propofol (dosage on effect) and anesthesia was maintained with isoflurane 1.2-1.4% (on effect) in 100% oxygen following endotracheal intubation. The intravenous injection was administered through a 22-gauge catheter in one of the cephalic veins, the intramuscular injection was performed in the left quadriceps muscle and the subcutaneous injection was administered at the back of the neck.
A two-headed gamma camera, equipped with low energy high resolution collimators (GCA 7200 A; Toshiba) was used for the scintigraphic investigation. The whole body scan was obtained with the detectors of the SPECT scanner moving simultaneous dorsally and ventrally from head to tail of the dog over 10 minutes. All dogs were kept under general anesthesia during all the acquisitions. For all 3 studies, data collection of the first hour consisted of 6 successive acquisitions of each 10 minutes. The start of the first acquisition was simultaneous with injection of the radioactive compound and the dog remained in the same position for all 6 scans. Next, in the first study, total body scans (each lasting 10 minutes) were performed at 2 h, 4 h, 8 h, 12 h, 24 h and 36 h after placebo control and labeled ePB-MSCs administration using propofol (dosage on effect). For the second and the third study, 6 successive 10 minutes' total body scans performed during the first hour after injection were followed by total body scans (each lasting 10 minutes) at 6 h and 24 h after each injection. For all studies, a syringe with a known amount of radioactivity to calculate % injected dose (ID), was simultaneous scanned with the dog. Care was taken for the dog's re-positioning on the table, to avoid too much spatial deviation on the scans following the first hour scans. […]

[O]=[99Tc](=[O])(=[O])[O-] [control product, ^99mTc Pertechnetate]
percentage of injected dose at injection site (IM, 10 min): 29.49% | percentage of injected dose in bladder (IM, 10 min): 0.13% | percentage of injected dose in heart (IM, 10 min): 0.45% | percentage of injected dose in left salivary gland (IM, 10 min): 0.02% | percentage of injected dose in lung (IM, 10 min): 1.06% | percentage of injected dose in right salivary gland (IM, 10 min): 0.01% | percentage of injected dose in stomach (IM, 10 min): 1.62% | percentage of injected dose in thyroid (IM, 10 min): 0.05% | percentage of injected dose at injection site (IM, 60 min): 3.63% | percentage of injected dose in bladder (IM, 60 min): 3.51% | percentage of injected dose in heart (IM, 60 min): 2.46% | percentage of injected dose in left salivary gland (IM, 60 min): 1.03% | percentage of injected dose in lung (IM, 60 min): 6.92% | percentage of injected dose in right salivary gland (IM, 60 min): 0.99% | percentage of injected dose in stomach (IM, 60 min): 17.36% | percentage of injected dose in thyroid (IM, 60 min): 1.10% | percentage of injected dose at injection site (IM, 6 hours): 0.19% | percentage of injected dose in bladder (IM, 6 hours): 4.77% | percentage of injected dose in heart (IM, 6 hours): 1.45% | percentage of injected dose in left salivary gland (IM, 6 hours): 1.84% | percentage of injected dose in lung (IM, 6 hours): 4.41% | percentage of injected dose in right salivary gland (IM, 6 hours): 1.60% | percentage of injected dose in stomach (IM, 6 hours): 17.25% | percentage of injected dose in thyroid (IM, 6 hours): 1.15% | percentage of injected dose at injection site (IM, 24 hours): 0.12% | percentage of injected dose in bladder (IM, 24 hours): 5.08% | percentage of injected dose in heart (IM, 24 hours): 0.69% | percentage of injected dose in left salivary gland (IM, 24 hours): 2.47% | percentage of injected dose in lung (IM, 24 hours): 2.14% | percentage of injected dose in right salivary gland (IM, 24 hours): 2.09% | percentage of injected dose in stomach (IM, 24 hours): 9.36% | percentage of injected dose in thyroid (IM, 24 hours): 0.57% | percentage of injected dose in bladder (IV, 10 min): 0.63% | percentage of injected dose in heart (IV, 10 min): 2.79% | percentage of injected dose in left salivary gland (IV, 10 min): 0.33% | percentage of injected dose in liver (IV, 10 min): 2.93% | percentage of injected dose in lung (IV, 10 min): 3.73% | percentage of injected dose in right salivary gland (IV, 10 min): 0.33% | percentage of injected dose in stomach (IV, 10 min): 4.84% | percentage of injected dose in thyroid (IV, 10 min): 0.41% | percentage of injected dose in bladder (IV, 60 min): 1.93% | percentage of injected dose in heart (IV, 60 min): 1.61% | percentage of injected dose in left salivary gland (IV, 60 min): 0.77% | percentage of injected dose in liver (IV, 60 min): 2.07% | percentage of injected dose in lung (IV, 60 min): 2.62% | percentage of injected dose in right salivary gland (IV, 60 min): 0.72% | percentage of injected dose in stomach (IV, 60 min): 9.77% | percentage of injected dose in thyroid (IV, 60 min): 0.61% | percentage of injected dose in bladder (IV, 6 hours): 2.42% | percentage of injected dose in heart (IV, 6 hours): 1.45% | percentage of injected dose in left salivary gland (IV, 6 hours): 1.31% | percentage of injected dose in liver (IV, 6 hours): 1.73% | percentage of injected dose in lung (IV, 6 hours): 1.97%
